For experiment [1], the target named is T1, human α5β1 (Homo sapiens, UniProt P05556+P08648).
T1 construct: human α5β1 purified from placenta; purchased Chemicon CC1055-K; host or cells: human placenta (tissue-purified)
The experiment in a line: In vitro binding assay: inhibition of α5β1 integrin binding to human fibronectin fragment Fn9-10 (Origen electrochemiluminescence). To be noted: α5β1 integrin binding to biotinylated Fn9-10; IC50 data; unit inferred. From the text: The assay determined the ability of compounds to inhibit binding of α5β1 integrin to a cognate ligand, a fragment of human fibronectin. The assay used Origen technology (IGEN International) to measure the compound activity. Briefly, α5β1 integrin was coated onto epoxy-paramagnetic beads (Dynal Biotech UK, Bromborough, Wirral, CH62 3QL, UK, Catalogue No 143.02) and biotinylated-fibronectin ligand was coupled to strepatividin labelled BV-Tag-NHS-Ester (BioVeris Corporation, Witney, Oxfordshire, OX28 4GE, UK, Catalogue No JSF396). The ruthenium-labelled BV-Tag emits a electrochemiluminescence signal upon stimulation which is detected by the Origen reader. Thus, interaction of integrin and ligand causes association of bead and tag, and the resulting electrochemiluminescence signal reflects the level of integrin interaction with fibronectin.
Coated beads were then washed into Assay Buffer (25 mM Hepes, 150 mM NaCl, 1 mM MgCl, 1 mM MnCl, 0.1% Tween, pH7.4) to give a final concentration of 20 µg of α5β1/ml. Immediately prior to the assay, the beads were further diluted ×40 fold in Assay Buffer to give a concentration of 0.5 μg α5β1/ml.
A DNA fragment encoding the domains 9-10 (amino-acids 1325-1509) of human fibronectin (Swiss-Prot Acession No. P02751) was isolated from cDNA libraries using standard molecular biology and PCR cloning techniques. The cDNA fragment was sub-cloned into a pT73.3 expression vector containing a GST-epitope tag (developed at AstraZeneca; Bagnall et al., Protein Expression and Purification, 2003, 27: 1-11). Following expression in E. coli, the expressed protein, termed Fn9-10, was purified using the GST-tag using standard purification techniques. The recombinant Fn9-10 was subsequently biotinylated using a EZ-link Sulfo-NHS-LC-Biotinylation kit (Perbio Science UK Ltd., Cramlington, Northumberland, NE23 1WA, UK, Catalogue No. 21335) and made to give a final concentration of approximately 1 mg/ml. BV-Tag-NHS-Ester was is labelled with streptavidin by incubation at room temperature following manufacturers instructions and buffer-exchanged into PBS to give a concentration of 0.5 mg/ml. Immediately prior to the assay, biotinylated-Fn9-10 and Streptavidin-labelled BV-Tag were diluted in Assay Buffer to give a final concentrations of 0.6 ug/ml and 1.5 ug/ml respectively. The Fn9-10 and BV-Tag solutions were then mixed together in equal volumes and incubated on ice for at least 30 minutes prior to the assay.
Test compounds were prepared as 10 mM stock solutions in DMSO (Sigma-Aldrich Company Ltd, Gillingham, Dorset SP8 4XT Catalogue No. 154938) and serially diluted with 4% DMSO to give a range of test concentrations at ×4 required final concentration. Aliquots (20 μl) of each compound dilution were placed into each well of a 384-well round bottomed polypropylene plate (Matrix Technologies, Wilmslow, Cheshire, SK9 3LP, Catalogue No. 4340 384). Each plate also contained control wells: maximum signal was created using wells containing 20 μl of 4% DMSO, and minimum signal corresponding to no binding was created using wells containing 20 μl of 80 mM EDTA (Sigma Catalogue No. E7889).
For the assay, 20 μl of a5b1-bead suspension and 40 μl of the Fn9-10/BV-Tag preincubated solution were added to each well containing 20 μl of compound or control solution. Assay plates were then incubated at room temperature for a minimum of 6 hours before being analysed on the Origen plate reader. […]

Experiment [2] has as its target T2, a5β1 integrin mediated adhesion of K562 cells (Homo sapiens, UniProt P05556+P08648).
T2 construct: a5β1 integrin mediated adhesion of K562 cells; host or cells: K562 human erythroleukaemia cells
As to the kind of experiment: In vitro cell adhesion assay: adhesion of K562 cells to fibronectin fragment Fn9-10 (crystal violet). Type of experiment: cell-based. Particulars: K562 cells on Fn9-10 coated plates, 0.2 mM MnCl, 45 minutes; IC50 data; unit inferred. From the text: The assay determined the ability of compounds to inhibit the a5β1 integrin mediated adhesion of K562 cells to the ligand, a fragment of human fibronectin. The human K562 erythroleukaemia cell line (LGC Promochem, Teddington, Middlesex, UK, Catalogue No. CCL-243) was routinely maintained in RPMI 1640 medium (Sigma-Aldrich Company Ltd, Gillingham, Dorset SP8 4XT, Catalogue No. R0883) containing 10% heat-inactivated foetal calf serum (PAA lab GmbH, Pasching, Austria Catalogue No. PAA-A15-043) and 1% glutamax-1 (Invitrogen Ltd. Paisley, UK Catalogue No. 35050-038) at 37° C. with 5% CO2 at densities between 1×10^5 and 1×10^6 cells/ml.
A DNA fragment encoding the domains 9-10 (amino-acids 1325-1509) of human fibronectin (Swiss-Prot Acession No. P02751) was isolated from cDNA libraries using standard molecular biology and PCR cloning techniques. The cDNA fragment was sub-cloned into a pT7#3.3 expression vector containing a GST-epitope tag (developed at AstraZeneca; Bagnall et al., Protein Expression and Purification, 2003, 27: 1-11), and the fragment termed Fn9-10. Following expression in E. coli, the expressed protein was purified using the GST-tag using standard purification techniques.
For adhesion assay, a 96-well flat bottomed plate (Greiner Bio one ltd., Gloucester GL10 3SX Catalogue No. 655101) was coated overnight at 4° C. with 100 μl of 20 μg/ml Fn9-10 ligand in Dulbecco's PBS (Gibco#14190-94). The plate was then washed twice with 200 μl of PBS and blocked with 100 μl of 3% BSA (SigmaA7888) in PBS for 1 hour at 37° C. The plates were then washed again 3 times with 200 μl of PBS and left empty.
Test compounds were prepared as 10 mM stock solutions in DMSO (Sigma-Aldrich Company Ltd, Gillingham, Dorset SP8 4XT Catalogue No. 154938) and serially diluted with HBSS (Hanks Buffered Salt solution (Gibco Catalogue No. 14170-088)/2% DMSO to give a range of test concentrations at twice required final concentration. Aliquots (50 μl) of each compound dilution were placed into each well of the Fn9-10 coated plates. Each plate also contained control wells: maximum adhesion signal was created using wells containing 50 μl HBSS/2% DMSO, and minimum signal corresponding to no adhesion was created using wells containing 50 μl HBSS/2% DMSO/20 mM EDTA (Sigma Catalogue No. E7889).
The K562 cells were cultured to ˜1×10^6 cells/ml, and each culture suspension pooled. Cells were centrifuged at 1200 rpm for 2 mins, and the pellets washed with HBSS followed by HBSS/50 mM HEPES (Sigma Catalogue No. H0887). Cell pellets were pooled and resuspended in HBSS/0.4 mM manganese chloride/50 mM HEPES (MnCl; Sigma Catalogue No. M1787) to give a final concentration of 4×10^6 cells/ml.
The assay was initiated by the addition of 50 μl of cell suspension into each coated well (200,000 cells/well), thus resulting in final desired compound concentration and a final MnCl concentration of 0.2 mM. The plates were incubated for 45 minutes at 37° C. 5% CO2. […]
After fixation, the ethanol was flicked off to waste and 100 μl of 0.1% Crystal violet stain was added to each well, and incubated at ambient temperature for 15 minutes. […] Finally, 100 μl of deionised water was added to each well and the absorbance was determined at 590 nm on a spectrophotometer. The minimum value was subtracted from all values, and the absorbance signal was plotted against compound concentration to generate IC50 data.

T1 sequence (P08648 42-894 limits assumed): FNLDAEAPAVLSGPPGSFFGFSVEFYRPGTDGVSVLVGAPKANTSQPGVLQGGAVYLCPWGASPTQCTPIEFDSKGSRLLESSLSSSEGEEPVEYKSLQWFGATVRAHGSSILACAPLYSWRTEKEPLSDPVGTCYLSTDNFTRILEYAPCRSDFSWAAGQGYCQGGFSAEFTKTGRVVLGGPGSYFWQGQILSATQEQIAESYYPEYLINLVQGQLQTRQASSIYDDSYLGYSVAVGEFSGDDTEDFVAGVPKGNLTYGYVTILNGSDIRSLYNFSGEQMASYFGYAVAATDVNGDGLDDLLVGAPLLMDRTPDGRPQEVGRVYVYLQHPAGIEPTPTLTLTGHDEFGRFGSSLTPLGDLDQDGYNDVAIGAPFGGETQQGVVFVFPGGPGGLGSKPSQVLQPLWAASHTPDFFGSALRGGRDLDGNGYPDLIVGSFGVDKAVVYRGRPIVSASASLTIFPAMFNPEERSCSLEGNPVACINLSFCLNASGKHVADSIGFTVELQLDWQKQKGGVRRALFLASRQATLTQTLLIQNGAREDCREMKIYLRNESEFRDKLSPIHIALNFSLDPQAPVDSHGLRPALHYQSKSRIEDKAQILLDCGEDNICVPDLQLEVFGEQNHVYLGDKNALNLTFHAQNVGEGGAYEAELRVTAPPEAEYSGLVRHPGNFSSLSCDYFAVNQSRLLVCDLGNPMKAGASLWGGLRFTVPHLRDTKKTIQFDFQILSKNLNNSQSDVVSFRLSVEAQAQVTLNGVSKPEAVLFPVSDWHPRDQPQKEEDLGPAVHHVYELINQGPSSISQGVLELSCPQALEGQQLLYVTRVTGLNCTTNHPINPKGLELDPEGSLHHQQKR
T1 sequence (P08648 895-1049 partner limits assumed): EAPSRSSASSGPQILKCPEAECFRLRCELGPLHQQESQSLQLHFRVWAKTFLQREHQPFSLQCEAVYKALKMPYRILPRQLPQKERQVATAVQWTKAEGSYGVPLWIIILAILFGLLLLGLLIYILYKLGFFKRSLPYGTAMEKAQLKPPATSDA
T1 sequence (P05556 21-798): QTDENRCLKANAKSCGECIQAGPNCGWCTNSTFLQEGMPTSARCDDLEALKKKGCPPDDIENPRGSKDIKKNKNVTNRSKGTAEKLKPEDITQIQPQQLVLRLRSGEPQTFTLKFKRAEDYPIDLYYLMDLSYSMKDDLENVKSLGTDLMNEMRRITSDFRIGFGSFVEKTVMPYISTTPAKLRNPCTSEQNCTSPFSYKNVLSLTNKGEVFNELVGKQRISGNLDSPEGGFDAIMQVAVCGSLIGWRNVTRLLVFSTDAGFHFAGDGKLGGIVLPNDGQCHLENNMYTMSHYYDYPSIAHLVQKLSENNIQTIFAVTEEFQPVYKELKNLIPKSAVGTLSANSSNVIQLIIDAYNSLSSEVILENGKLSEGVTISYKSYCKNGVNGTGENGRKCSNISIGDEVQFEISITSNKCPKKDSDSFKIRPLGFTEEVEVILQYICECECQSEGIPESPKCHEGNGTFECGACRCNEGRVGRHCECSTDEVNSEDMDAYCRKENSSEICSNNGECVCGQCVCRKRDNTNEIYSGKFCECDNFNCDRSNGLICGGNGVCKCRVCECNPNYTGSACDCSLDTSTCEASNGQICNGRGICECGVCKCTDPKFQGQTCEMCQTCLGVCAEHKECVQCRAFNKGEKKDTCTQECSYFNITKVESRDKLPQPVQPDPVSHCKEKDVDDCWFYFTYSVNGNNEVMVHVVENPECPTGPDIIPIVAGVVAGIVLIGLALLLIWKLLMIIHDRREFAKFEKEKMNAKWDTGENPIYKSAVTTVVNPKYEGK
T2 sequence (P08648 42-894 limits assumed): as the sequence (P08648 42-894 limits assumed) above
T2 sequence (P08648 895-1049 partner limits assumed): as the sequence (P08648 895-1049 partner limits assumed) above
T2 sequence (P05556 21-798): as the sequence (P05556 21-798) above

`Cc1cc(C(=O)N2CC(Oc3ccc(C[C@H](NC(=O)c4c(Cl)cccc4Cl)C(=O)O)cc3)C2)ccc1F` [Example 48, N-(2,6-dichlorobenzoyl)-O-[1-(4-fluoro-3-methylbenzoyl)azetidin-3-yl]-L-tyrosine]: the values for the IC50 in experiment [1] and in experiment [2] were 0.466 µM and 4 µM, respectively.

Turning to “N-(2,6-Dichlorobenzoyl)-O-[(3R)-pyrrolidin-3-yl]-L-tyrosine [Example 17]”, the values for the IC50 in experiment [1] and in experiment [2] were 1.2 µM and 9.3 µM, respectively.

Regarding `CN1CCC(Oc2ccc(C[C@H](NC(=O)c3c(Cl)cccc3Cl)C(=O)O)cc2)CC1` [Example 20, N-(2,6-Dichlorobenzoyl)-O-(1-methylpiperidin-4-yl)-L-tyrosine], the results for the IC50 in experiment [1] and in experiment [2] were 0.185 µM and 2.4 µM, respectively.

As to `N#Cc1cccc(CN2CCC(Oc3ccc(C[C@H](NC(=O)c4c(Cl)cccc4Cl)C(=O)O)cc3)CC2)c1` [Example 83, O-[1-(3-cyanobenzyl)piperidin-4-yl]-N-(2,6-dichlorobenzoyl)-L-tyrosine], the results for the IC50 in experiment [1] and in experiment [2] were 1.7 µM and 6.6 µM, respectively.

Turning to `O=C(N[C@@H](Cc1ccc(O[C@H]2CCCN(Cc3cc(F)ccc3F)C2)cc1)C(=O)O)c1c(Cl)cccc1Cl` [Example 76, N-(2,6-dichlorobenzoyl)-O-[(3S)-1-(2,5-difluorobenzyl)piperidin-3-yl]-L-tyrosine], the IC50 (commonly the concentration that gives 50% inhibition) in experiment [1] came to 4.1 µM; in experiment [2] it was 11.4 µM.

The values are drawn from US20090203663A1, “CHEMICAL COMPOUNDS” (AstraZeneca AB, priority 2006, published 2009).
